Earlier results, collected in patent US6943021B2, “Three dimensional vaginal tissue model containing immune cells” (MatTek Corporation, priority 2002, dated 2005).

System: ectocervical-vaginal tissue

Substance: Nonoxynol-9 [N-9]
- ectocervical-vaginal irritation (finite segment of the population (Reckart 1992)): cause ectocervical-vaginal irritation
- volunteers who experienced ectocervical-vaginal irritation (study evaluating N-9 as an HIV microbicide (Stafford et al. 1998)): 25%
